# Experimental data as given in patent US7109177B2, “Methods and compositions for the manufacture of C-3′ and C-4′ anthracycline antibiotics” (Houston Pharmaceuticals, Inc., priority 1999, dated 2006).
# Values joined by “and” are separate entries in the source; they are usually repeats but may differ in a detail not shown here. Identical values can stand only once. Like-named read-outs stand apart in the source and are kept apart here.
# Key:
# MCF-7/DOX cells = assay: MTT cytotoxicity assay, MCF-7/DOX cells (MDR1)
# [1] = test system: KB-V1 (KBV1) carcinoma cells; assay: MTT cytotoxicity assay, multi-drug-resistant KB-V1 cells (MDR1/P-gp); assay type: cell-based, human; set-up: ID50 KBV1: unit not given here; settings: for Effectiveness as measured by resistance index (RI), in words: in vitro, compared with daunorubicin or doxorubicin
# Protocol: (§1) In vitro drug cytotoxicities against human breast carcinoma wild-type MCF-7 and MRP-resistant MCF-7NP-16 cells were assessed by using the […], as previously reported (Green et al., 1984). […] Drugs were then added to the wells to achieve a final drug concentration ranging from 0.1 to 50 μg/mL. Four wells were used for each concentration. […] After a 4-hour incubation, 100 μL of buffer containing 50% N,N-dimethylformamide and 20% SDS was added to solubilize the MTT formazan. […] Results and Discussion
# (§2) Thus, for the in vitro evaluation of substituted anthracyclines having C-3′ alkylated anthracyclines modified at benzyl ring and having 4′-substituted-benzylated anthracyclines, the inventors selected two sensitive cell lines: a human carcinoma KB and MCF-7 human breast cancer, the multi-drug-resistant (MDR) counterpart of KB (KBV1 carcinoma), which overexpresses MDR1 gene that encodes a membrane transport glycoprotein (P-gp), the MCF-7NVP-16 cell line that overexpresses the multi-drug-resistant associated protein (MRP), and the MCF-7/dox cell line which overexpresses MDR1 gene.
# [2] = test system: human breast carcinoma MCF-7 cells; set-up: unit not given beside the values
# CEM leukemic cells = assay: Quantitative apoptotic DNA fragmentation assay; assay type: cell-based; settings: 24 h incubation
# Source text: Results are from two independent studies carried out in duplicate.
# human carcinoma KB cells = assay: MTT cytotoxicity assay, sensitive KB cells; assay type: cell-based
# Protocol: as §1, §2
# breast tumors = assay: In vivo prevention of tumor development in a mouse cancer model; settings: compared with buffer-treated control mice that develop tumors
# Protocol: In an initial round of in vivo trials, a mouse model of human cancer with the histologic features and metastatic potential resembling tumors seen in humans (Katsumata et al., 1995) is used. The animals are treated with analogs of anthracyclines having C-3′-substitutions as described or anthracycline analogs with C-4′-substitutions synthesized in the present invention to determine the suppression of tumor development.
# Two groups of mice of a suitable cancer model are treated with doses of substituted anthracyclines with substitutions at the C-3′-sugar or having C-4′-substituted sugar moietied. Several combinations and concentrations of the substituted anthracyclines are tested. Control mice are treated with buffer only.
# The effect of substituted anthracyclines on the development of breast tumors is compared with the control group by examination of tumor size and histopathologic examination (breast tissue is cut and stained with hematoxylin and eosin) of breast tissue.
# [3] = test system: sensitive and MDR tumor cell lines; assay: In vitro evaluation of cytotoxicity compared with DOX (cell line not given); assay type: cell-based, human; settings: for Cytotoxicity compared to DOX, in words: in vitro evaluation; for Direct comparison of cytotoxicity with DOX, in words: effect of C-3′ and C-4′ substitutions on potency
# Protocol: as §1, §2
# [4] = Table 2, MTT assay, mean of at least 4 experiments
# Protocol for MCF-7/VP-16 cells: Compounds synthesized using the methods described above were tested using a standard MTT. assay (Green et al., 1984) against human carcinoma sensitive (KB) and multi drug-resistant (KBV1) cells and MCF-7 and MCF-7/VP-16 resistant cells characterized as having the MRP (multi-drug resistant associated protein) phenotype.
# In vitro drug cytotoxicities against human breast carcinoma wild-type MCF-7 and MRP-resistant MCF-7NP-16 cells were assessed by using the MT reduction assay, as previously reported (Green et al., 1984). […] Drugs were then added to the wells to achieve a final drug concentration ranging from 0.1 to 50 μg/mL. Four wells were used for each concentration. […] After a 4-hour incubation, 100 μL of buffer containing 50% N,N-dimethylformamide and 20% SDS was added to solubilize the MTT formazan.
structure (smiles),measurement,setting,value
"COc1cccc2c1C(=O)c1c(O)c3c(c(O)c1C2=O)C[C@@](O)(C(=O)CO)C[C@@H]3O[C@H]1C[C@H](N)[C@H](O)[C@H](C)O1 [DOX, doxorubicin, reference compound]",ID50 MCF-7/DOX,"MCF-7/DOX cells; Table 3, EXP. 1",>100
same,RI (MCF-7/DOX vs MCF-7),"MCF-7/DOX cells; Table 3, EXP. 1",>333
same,ID50 MCF-7/DOX,"MCF-7/DOX cells; Table 3, under EXP. 2",>100
same,RI (MCF-7/DOX vs MCF-7),"MCF-7/DOX cells; Table 3, under EXP. 2",>189
same,ID50 MCF-7/VP-16,"MCF-7/VP-16 cells; Table 3, EXP. 1",3.0
same,RI (MCF-7/VP-16 vs MCF-7),"MCF-7/VP-16 cells; Table 3, EXP. 1",10
same,ID50 MCF-7/VP-16,"MCF-7/VP-16 cells; Table 3, under EXP. 2",8.3 ± 0.5 and 6.87 ± 0.58
same,RI (MCF-7/VP-16 vs MCF-7),"MCF-7/VP-16 cells; Table 3, under EXP. 2",16.6 and 13
same,ID50 KB-V1,[1]; [4],>100 µg/mL and 109 ± 28 µg/mL
same,RI (resistance index) KB-V1 vs KB,"[1]; Table 2, higher RI = less effective against MDR",>200
same,ID50 KBV1,"[1]; Table 3, EXP. 1",>100
same,RI (KBV1 vs KB),"[1]; Table 3, EXP. 1",>42.6
same,ID50 KBV1,"[1]; Table 3, under EXP. 2",174 ± 32 and >100
same,ID50 MCF-7,"[2]; Table 3, EXP. 1",0.3
same,ID50 MCF-7,"[2]; Table 3, under EXP. 2",0.50 ± 0.26 and 0.53 ± 0.25
same,"Fragmented DNA, % Total DNA",CEM leukemic cells; 0.1 μM,−0.2%
same,"Fragmented DNA, % Total DNA",CEM leukemic cells; 0.5 μM,27.1%
same,"Fragmented DNA, % Total DNA",CEM leukemic cells; 1 μM,28.7%
same,"Fragmented DNA, % Total DNA",CEM leukemic cells; 2 μM,38.3%
same,ID50 KB,human carcinoma KB cells; [4],0.50 ± 0.0 µg/mL and 0.43 ± 0.19 µg/mL
same,ID50 KB,"human carcinoma KB cells; Table 3, EXP. 1",2.35
"CC(=O)O[C@H]1[C@@H](N=[N+]=[N-])C[C@@H](O[Si](C)(C)C(C)(C)C)O[C@H]1C [WP417, 4-O-acetyl-3-Azido-1-O-t-butyldimethylsilyl-2,3,6-trideoxy-β-L-lyxo hexapyranose]","Tumor development in treated mice, predicted",breast tumors,resistant to tumor development
"C[C@@H]1O[C@H](O[Si](C)(C)C(C)(C)C)C[C@H](N=[N+]=[N-])[C@@H]1O [WP418, t-Butyldimethylsilyl 3-azido- -2,3,6-trideoxy-β-L-lyxo hexapyranose]","Tumor development in treated mice, predicted",breast tumors,resistant to tumor development
"CCCCC(=O)OCC(=O)[C@]1(O)Cc2c(O)c3c(c(O)c2[C@@H](O[C@H]2C[C@H](O)[C@H](OCc4ccccc4)[C@H](C)O2)C1)C(=O)c1c(OC)cccc1C3=O [WP571, 3-deamino-4-O-benzyl-3-O-hydroxy-14-O-pentanoyl-doxorubicin]","Tumor development in treated mice, predicted",breast tumors,resistant to tumor development
same,"Cytotoxicity compared to DOX, in words",[3],unusually potent cytotoxic agents
"COc1cccc2c1C(=O)c1c(O)c3c(c(O)c1C2=O)C[C@@](O)(C(=O)CO)C[C@@H]3O[C@H]1C[C@H](O)[C@H](OCc2ccccc2)[C@H](C)O1 [WP727, 4-O-benzyl-3-deamino-3-hydroxy-doxorubicin]","Tumor development in treated mice, predicted",breast tumors,resistant to tumor development
same,"Cytotoxicity compared to DOX, in words",[3],unusually potent cytotoxic agents
"COc1cccc2c1C(=O)c1c(O)c3c(c(O)c1C2=O)C[C@@](O)(C(=O)CO)C[C@@H]3O[C@H]1C[C@H](N)[C@H](OCc2ccccc2)[C@H](C)O1 [WP744, 4′-O-Benzyl-doxorubicin]",ID50 MCF-7/DOX,"MCF-7/DOX cells; Table 3, EXP. 1",5.25
same,RI (MCF-7/DOX vs MCF-7),"MCF-7/DOX cells; Table 3, EXP. 1",3.22
same,ID50 MCF-7/DOX,"MCF-7/DOX cells; Table 3, under EXP. 2",0.89 ± 0.10
same,RI (MCF-7/DOX vs MCF-7),"MCF-7/DOX cells; Table 3, under EXP. 2",2.41
same,ID50 MCF-7/VP-16,"MCF-7/VP-16 cells; Table 3, EXP. 1",2.3 ± 1.9
same,RI (MCF-7/VP-16 vs MCF-7),"MCF-7/VP-16 cells; Table 3, EXP. 1",1.41
same,RI (MCF-7/VP-16 vs MCF-7),"MCF-7/VP-16 cells; Table 3, under EXP. 2",1.4 and 1.6
same,ID50 KBV1,"[1]; Table 3, EXP. 1",2.76 ± 0.52
same,RI (KBV1 vs KB),"[1]; Table 3, EXP. 1",1.84
same,ID50 KBV1,"[1]; Table 3, under EXP. 2",2.1 ± 0.5 and 4.07 ± 1.85
same,"Effectiveness as measured by resistance index (RI), in words",[1],significantly more effective
same,ID50 MCF-7,"[2]; Table 3, EXP. 1",1.63 ± 0.5
same,"Tumor development in treated mice, predicted",breast tumors,resistant to tumor development
same,"Fragmented DNA, % Total DNA",CEM leukemic cells; 0.05 μM,17.8%
same,"Fragmented DNA, % Total DNA",CEM leukemic cells; 0.1 μM,31.3%
same,"Fragmented DNA, % Total DNA",CEM leukemic cells; 0.5 μM,46.7%
same,"Cytotoxicity compared to DOX, in words",[3],unusually potent cytotoxic agents
same,ID50 KB,"human carcinoma KB cells; Table 3, EXP. 1",1.44 ± 0.45
"COc1cccc2c1C(=O)c1c(O)c3c(c(O)c1C2=O)C[C@@](O)(C(=O)CO)C[C@@H]3O[C@H]1C[C@H](N)[C@@H](OCc2ccccc2)[C@H](C)O1 [WP750, 4′-O-Benzyl-4′epi-doxorubicin]",ID50 KBV1,"[1]; Table 3, under EXP. 2",56 ± 29
same,RI (KBV1 vs KB),"[1]; Table 3, under EXP. 2",8.8
same,"Effectiveness as measured by resistance index (RI), in words",[1],significantly more effective
same,"Tumor development in treated mice, predicted",breast tumors,resistant to tumor development
same,"Direct comparison of cytotoxicity with DOX, in words",[3],drastically increase the potency
same,"Cytotoxicity compared to DOX, in words",[3],unusually potent cytotoxic agents
same,ID50 KB,"human carcinoma KB cells; Table 3, under EXP. 2",6.4
"CC(=O)[C@]1(O)Cc2c(O)c3c(c(O)c2[C@@H](O[C@H]2C[C@H](N)[C@H](OCc4ccccc4)[C@H](C)O2)C1)C(=O)c1ccccc1C3=O [WP783, 4′-O-Benzyl-4-demethoxydaunorubicin]",ID50 KBV1,"[1]; Table 3, under EXP. 2",1.1 ± 0.8
same,RI (KBV1 vs KB),"[1]; Table 3, under EXP. 2",2.6
same,"Effectiveness as measured by resistance index (RI), in words",[1],significantly more effective
same,"Tumor development in treated mice, predicted",breast tumors,resistant to tumor development
same,"Direct comparison of cytotoxicity with DOX, in words",[3],drastically increase the potency
same,"Cytotoxicity compared to DOX, in words",[3],unusually potent cytotoxic agents
same,ID50 KB,"human carcinoma KB cells; Table 3, under EXP. 2",0.43 ± 0.21
"CC(=O)[C@]1(O)Cc2c(O)c3c(c(O)c2[C@@H](O[C@H]2C[C@H](N)[C@H](OCc4ccc(F)cc4)[C@H](C)O2)C1)C(=O)c1ccccc1C3=O [WP797, 4′-(4-Fluoro-benzyloxy)-4-demethoxydaunorubicine]","Tumor development in treated mice, predicted",breast tumors,resistant to tumor development
same,"Cytotoxicity compared to DOX, in words",[3],unusually potent cytotoxic agents
"COc1cccc2c1C(=O)c1c(O)c3c(c(O)c1C2=O)C[C@@](O)(C(=O)CO)C[C@@H]3O[C@H]1C[C@H](N)[C@H](OCc2c(F)cccc2F)[C@H](C)O1 [WP799, 4′-(2,6-difluoro-benzyloxy)-doxorubicine]","Tumor development in treated mice, predicted",breast tumors,resistant to tumor development
same,"Cytotoxicity compared to DOX, in words",[3],unusually potent cytotoxic agents
